Experimental data published in article PMC9927571, “Antibacterial Activity of an FtsZ Inhibitor Celastrol and Its Synergistic Effect with Vancomycin against Enterococci In Vitro and In Vivo” (Microbiology Spectrum, 2023).

Molecular target: T1, FtsZ (Filamenting temperature-sensitive mutant Z) (Enterococcus faecalis, UniProt O08439)
T1 construct: recombinant E. faecalis FtsZ protein (FTZ04-B)
Assay: SPR (Biacore T200, FtsZ immobilized on CM5 chip); also GTPase inhibition of E. faecalis FtsZ, IC50 […]
Type: binding

T1 sequence (O08439 whole entry, change not shown): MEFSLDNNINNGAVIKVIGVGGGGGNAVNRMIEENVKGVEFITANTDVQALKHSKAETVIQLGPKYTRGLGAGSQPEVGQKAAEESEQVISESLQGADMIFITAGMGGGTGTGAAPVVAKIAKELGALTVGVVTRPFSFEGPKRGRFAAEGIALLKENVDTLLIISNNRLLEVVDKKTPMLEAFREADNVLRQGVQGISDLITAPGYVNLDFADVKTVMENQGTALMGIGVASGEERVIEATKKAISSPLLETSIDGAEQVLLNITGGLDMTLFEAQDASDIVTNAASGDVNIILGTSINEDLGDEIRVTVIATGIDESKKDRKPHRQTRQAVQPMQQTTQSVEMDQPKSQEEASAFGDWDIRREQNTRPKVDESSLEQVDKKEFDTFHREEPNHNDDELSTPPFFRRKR

CC1=C(O)C(=O)C=C2C1=CC=C1[C@@]2(C)CC[C@@]2(C)[C@@H]3C[C@](C)(C(=O)O)CC[C@]3(C)CC[C@]12C [CEL, celastrol]
Kd: 2.45 µM
